Laboratory results published in US6372278B1, “Sweetener composition” (Ajinomoto Co., Inc., priority 1998, dated 2002).
Peptide text beside a SMILES is read from it.

Columns and labels:
[1] = in terms of weight ratio; cited from earlier work
[2] = Dissolution time in water, elution tester (Japanese Pharmacopoeia paddle method); type: physicochemical
Description: (Dissolution rate of raw (original) powders each from NM C-type crystals and APM, and a mixture thereof) A predetermined amount of the sample was introduced into 900 ml water (20° C.) in a 1-L elution tester (the Japanese Pharmacopoeia, Paddle method, 100 rpm) and its dissolution time was measured (end point was visually confirmed).
Specifically, 1 g of sample taken from each mixture consisting of NM C-type crystal raw powder (average particle size of about 100 μm) and APM raw powder (average particle size of about 15 μm, IB-type bundled crystals) at the predetermined various ratios (APM content (% by weight)) shown in Table 1 below, was weighed, and then measured for its dissolution time. For comparison, 1.00 g, 0.90 g, 0.50 g, 0.10 g, 0.03 g, and 0.005 g samples were taken from said NM raw powder, and then their dissolution times were determined in the same manner as above. For the same purpose, 1.00 g, 0.97 g, 0.90 g, 0.50 g, and 0.10 g samples were taken from said APM raw powder, and then their dissolution times were determined in the same manner. […]

[3] = 0.10 g sample alone in 900 ml water, 20° C., paddle 100 rpm
[4] = 0.50 g sample alone in 900 ml water, 20° C., paddle 100 rpm
[5] = 0.90 g sample alone in 900 ml water, 20° C., paddle 100 rpm
[6] = 1.00 g sample alone in 900 ml water, 20° C., paddle 100 rpm, end point visual
[7] = 0.03 g sample alone in 900 ml water, 20° C., paddle 100 rpm
[8] = 0.51 g of NM alone (same sweetness as 1 g mixture containing 50% APM)

COC(=O)[C@H](Cc1ccccc1)NC(=O)[C@@H](N)CC(=O)O [APM, Aspartame] (H-Asp-Phe-OMe)
sweetness strength [1]: about 200 times that of sucrose | Dissolution time [2, 3]: 10 min | Dissolution time [2, 4]: 20 min | Dissolution time [2, 5]: 27 min | Dissolution time ([2]; 0.97 g sample alone in 900 ml water, 20° C., paddle 100 rpm): 29 min | Dissolution time [2, 6]: 30 min

COC(=O)[C@H](Cc1ccccc1)NC(=O)[C@H](CC(=O)O)NCCC(C)(C)C [NM]
sweetness strength [1]: about 10,000 times that of sucrose

COC(=O)[C@H](Cc1ccccc1)NC(=O)[C@H](CC(=O)O)NCCC(C)(C)C [NM C-type crystals, N-{N-(3,3-dimethylbutyl)-L-α-aspartyl}-L-phenylalanine 1-methyl ester]
Dissolution time ([2]; 0.005 g sample alone in 900 ml water, 20° C., paddle 100 rpm): 4 min | Dissolution time [2, 7]: 30 min | Dissolution time [2, 3]: 40 min | Dissolution time ([2]; 0.5 g alone, 900 ml water, 20° C.): 55 min | Dissolution time [2, 4]: 55 min | Dissolution time [2, 8]: about 55 minutes | Dissolution time [2, 5]: 60 min | Dissolution time [2, 6]: 62 min

COC(=O)[C@H](Cc1ccccc1)NC(=O)[C@H](CC(=O)O)NCCC(C)(C)C [NM A-type crystals, N-{N-(3,3-dimethylbutyl)-L-α-aspartyl}-L-phenylalanine 1-methyl ester]
Dissolution time [2, 7]: 10 min | Dissolution time [2, 3]: 16 min | Dissolution time [2, 4]: 35 min | Dissolution time [2, 8]: about 35 minutes | Dissolution time [2, 5]: 40 min | Dissolution time [2, 6]: 42 min
